From PMC7297862, “In Vivo Tumor Growth Inhibition and Antiangiogenic Effect of Cyclic NGR Peptide-Daunorubicin Conjugates Developed for Targeted Drug Delivery” (Pathology Oncology Research, 2019) come the findings set out here.

Structures are written as SMILES. Read-outs that look alike come from different tables or passages of the source.

Data set [1] deals with CD13(+) Kaposi's sarcoma cells (KS). The data set is described as follows: MTT antiproliferative assay on KS cells. The format is cell-based. The settings on record: Homo sapiens, 24 h treatment followed by 48 h incubation in drug free medium, average ± SD. As to the method: (§1) KS (Kaposi’s sarcoma) derived from human Kaposi sarcoma and HT-29 (human colorectal adenocarcinoma) cell line obtained from ATCC were cultured in RPMI 1640 medium with glutamine (Roswell Park Memorial Institute Medium, Lonza, Basel, Switzerland), and MRC-5 (normal fibroblast) cells were cultured in DMEM (Dulbecco’s Modified Eagle’s Medium, Lonza). All media were supplemented with 10% heat-inactivated FBS (Fetal Bovine Serum, Euroclone, Milan, Italy), and with 1% penicillin/streptomycin (Sigma-Aldrich). Cells were cultured in sterile T25 or T75 flasks with ventilation cap (Sarstedt, Nümbrecht, Germany) at 37 °C in a humidified atmosphere with 5% CO2.
(§2) For evaluation of in vitro antiproliferative activity of NGR-Dau conjugates and free Dau, cell viability was determined by MTT assay (3-(4,5-dimethylthiazol-2-yl)-2,5-diphenyl-tetrazolium bromide (Sigma Aldrich)). […] The formazan crystals were dissolved in 100 μL of a 1:1 solution of DMSO (Sigma-Aldrich):EtOH (Molar Chemicals) and the absorbance was measured after 15 min at λ = 570 nm by using a microplate reader (Bio-Rad, model 550, Hercules, CA, USA). The IC50 values of the conjugates and free drug were calculated using GraphPad Prism 6 (GraphPad Software, San Diego, CA, USA). […]

Data set [2] concerns CD13(−) HT-29 human colorectal adenocarcinoma cells. The data set is described as follows: MTT antiproliferative assay on HT-29 cells. The settings on record: average ± SD. The format is cell-based. The procedure: as §1, §2
The nature of data set [3]: MTT antiproliferative assay on MRC-5 cells. As to conditions: human, MRC-5 cells (normal, non-cancerous human fibroblasts), 72 h continuous treatment, average ± SD. The data set is classed as cell-based. As to the method: as §1, §2
On the technique in general: Tetrazolium assays rely on reduction of a dye to a coloured formazan, in cell work by metabolically active cells.

For data set [4], the system named is subcutaneous Kaposi's sarcoma bearing SCID mice. Briefly: Subcutaneous Kaposi's sarcoma model. The settings on record: KS s.c. model, free Dau 1 mg/kg 5 treatments. The data set is classed as in vivo, mouse. From the text: (§3) The immunodeficient SCID mice on a C.B.-17 background were bred in specific opportunistic and pathogen free isolator breeding rooms. The breeding isolator was supplied with corn-cob bedding and standard VRF1 rodent chow and with acidified (pH = 3) sterilized distilled water. The mice from the breeding rooms were used for the subcutaneous model of KS and orthotopic model of human colon cancer. They were held in filter-top boxes in the experimental barrier rooms, and every box-opening was performed under a Class 100 laminar-flow hood. The animal housing density was in accordance with the international recommendations. The cage components, corn-cob bedding and food (VRF1 from Special Diet Services) were steam-sterilized in an autoclave (121 °C, 20 min). The animals used in these studies were cared for according to the “Guiding Principles for the Care and Use of Animals” based upon the Helsinki declaration, and they were approved by the local ethical committee. Permission license for breeding and performing experiments with laboratory animals: PEI/001/1738-3/2015 and PEI/001/2574–6/2015.
(§4) Kaposi’s sarcoma (KS) cells were injected into SCID female mice (19-24 g) (s.c.), 3 × 10^6 cells per animal in volume of 200 μL M199 medium per animal. Treatment started 35 days after cell inoculation when average tumor volume was 66 mm^3, by i.p. administration. […] Treatment volume was 0.2 mL/animal. Animal weight and tumor volumes were measured initially when the treatment started and at periodic intervals according to the treatment schedule. A digital caliper was used to measure the longest (a) and the shortest diameter (b) of a given tumor. The tumor volume was calculated using the formula V = ab^2 × π/6, whereby a and b represent the measured parameters (length and width). The experiment was terminated on day 70 after tumor transplantation (day 36 of treatment). The mice from all groups were sacrificed by cervical dislocation. Their primary tumors and livers were harvested and weighed.

Data set [5] deals with orthotopic HT-29 human colon carcinoma bearing SCID mice. The data set is described as follows: Orthotopic HT-29 human colon tumor model. The format is in vivo, mouse. The settings on record: orthotopic HT-29 model.
Description: as §3
HT-29 human colon cancer cells were injected into SCID female mice subcutaneously (s.c.), 3 × 10^6 cells per animal in volume of 200 μL M199 medium per animal, in order to establish tumor for transplantation. After 2 weeks, the mice with palpable tumors were sacrificed by cervical dislocation, and the subcutaneous tumor was dissected out aseptically. Tumor pieces of 2 mm^3 were transplanted orthotopically, under aseptic conditions into anesthetized (narcotic mixture: tiletamine, zolazepam, xylazine, butorphanol) SCID female mice (19-25 g). A small midline incision (0.5 cm) was made and the colorectal part of the intestine was exteriorized. Serosa of the site where the tumor pieces were to be implanted were removed. Tumor tissue fragments of HT-29 human colon tumor were implanted on the top of the animal intestine; an 8/0 surgical (polypropylene) suture was used to suture it on the wall of the intestine. The intestine was returned to the abdominal cavity, and the abdominal wall was closed with 4/0 surgical (polyglycolic acid) sutures. The wound was sterilized and the animals were kept in a sterile environment. On the next day, no sign of pain and/or stress of the mice was observed. The treatments started 6 days after tumor transplantation by i.p. administration of the compounds dissolved in distilled water for injection. 8 mice per group were used.
One group of mice were treated with free Dau (1 mg/kg body weight) on days 6, 13 and 20 after tumor transplantation. Animal groups treated with compounds 1 and 2 were administered with a dose of 10 mg/kg Dau content (33.8 and 33.5 mg/kg of each conjugate, respectively) on days 6, 8, 10, 13, 17, 20 and 24 after tumor transplantation. Control group was treated with sterile water as solvent in 0.2 mL volume per animal. The experiment was terminated on day 27 after tumor transplantation (day 22 of treatment). Daunorubicin treated group was terminated on day 24 after tumor transplantation (day 19 of treatment) due to significant weight loss of the animals. The mice from all groups were sacrificed by cervical dislocation. Their primary tumors and livers were harvested and weighed, while metastases were counted in other organs.

The test system of data set [6] is subcutaneous Kaposi's sarcoma primary tumor. The data set is described as follows: Proliferation index (KI-67) in KS primary tumor. The data set is classed as in vivo, mouse. As to conditions: percentage printed in Fig. 7a. The procedure:
as §4, with “The experiment was terminated on day 70 after tumor transplantation (day 36 of treatment). The mice from all groups were sacrificed by cervical dislocation. Their primary tumors and livers were harvested and weighed.” left out
(§5) The routinely formalin-fixed tumors were dehydrated in a graded series of ethanol, infiltrated with xylene and embedded into paraffin at a temperature not exceeding 60 °C. […] The KI-67-positive tumor cells were counted manually per fields of vision under light microscope (400-fold magnification), and 3 fields of view per tumor were evaluated. Proliferation index was calculated as percentage of KI-67 positive cells from all cells in the field of view. The CD31-positive blood vessels were counted manually using light microscope (200-fold magnification), whereby 3 fields of view per tumor were evaluated, and blood vessel density was calculated as number of blood vessels per mm^2.

The test system of data set [7] is orthotopic HT-29 human colon primary tumor. The data set is described as follows: Proliferation index (KI-67) in HT-29 primary tumor. The data set is classed as in vivo, mouse. The procedure:
(§6) HT-29 human colon cancer cells were injected into SCID female mice subcutaneously (s.c.), 3 × 10^6 cells per animal in volume of 200 μL M199 medium per animal, in order to establish tumor for transplantation. After 2 weeks, the mice with palpable tumors were sacrificed by cervical dislocation, and the subcutaneous tumor was dissected out aseptically. Tumor pieces of 2 mm^3 were transplanted orthotopically, under aseptic conditions into anesthetized (narcotic mixture: tiletamine, zolazepam, xylazine, butorphanol) SCID female mice (19-25 g). A small midline incision (0.5 cm) was made and the colorectal part of the intestine was exteriorized. Serosa of the site where the tumor pieces were to be implanted were removed. […]
(§7) One group of mice were treated with free Dau (1 mg/kg body weight) on days 6, 13 and 20 after tumor transplantation. […] Their primary tumors and livers were harvested and weighed, while metastases were counted in other organs.
(§8) The routinely formalin-fixed tumors were dehydrated in a graded series of ethanol, infiltrated with xylene and embedded into paraffin at a temperature not exceeding 60 °C. […] The KI-67-positive tumor cells were counted manually per fields of vision under light microscope (400-fold magnification), and 3 fields of view per tumor were evaluated. Proliferation index was calculated as percentage of KI-67 positive cells from all cells in the field of view. […]

For data set [8], the system named is subcutaneous Kaposi's sarcoma primary tumor. Briefly: Vascularization (CD31 blood vessel density) in KS primary tumor. The data set is classed as in vivo, mouse. The settings on record: percentage printed in Fig. 7c. The procedure: as §4, with “The experiment was terminated on day 70 after tumor transplantation (day 36 of treatment). The mice from all groups were sacrificed by cervical dislocation. Their primary tumors and livers were harvested and weighed.” left out
as §5

Data set [9] has as its system orthotopic HT-29 human colon primary tumor. Briefly: Vascularization (CD31 blood vessel density) in HT-29 primary tumor. The data set is classed as in vivo, mouse. As to conditions: percentage printed in Fig. 7d. The procedure: as §6, §7, §8

Broadly, the IC50 is the point on the concentration scale where inhibition reaches its midpoint.

As to `COc1cccc2c1C(=O)c1c(O)c3c(c(O)c1C2=O)C[C@@](O)(C(C)=O)C[C@@H]3O[C@H]1C[C@H](N)[C@H](O)[C@H](C)O1` [Dau, daunorubicin], the IC50 in data set [1] is 100 ± 10 nM; in data set [2] (24 h treatment followed by 48 h incubation in drug free medium, read-out: HT-29 (24 h) IC50), 90 ± 10 nM; in data set [2] (72 h continuous treatment, read-out: HT-29 (72 h) IC50), 100 ± 10 nM. Half-maximal inhibition in [3] (IC50 at 72 h) required 250 ± 60 nM. In data set [4] (conjugates 10 mg/kg Dau content i.p. 11 treatments, day 70 after cell inoculation, 5 animals per group), the “decrease of animal body weight at end of experiment” value is recorded as 16.7%. In data set [4] (conjugates 10 mg/kg Dau content i.p. 11 treatments, end of experiment (day 70)), the “inhibition of tumor volume compared to control” value stood at 18.6%. Further, the “decrease of liver/body weight ratio in comparison to control” value came to 12.3% in data set [4] (day 70, p < 0.05) and 14.5% in [5] (free Dau 1 mg/kg 3 treatments, p < 0.05). The “inhibition of tumor weight compared to control” value in data set [5] (conjugates 10 mg/kg Dau content 7 treatments (day 27), free Dau 1 mg/kg 3 treatments (day 24)) is on record as 67.7%. Moreover, the “animal body weight during treatment” value in data set [5] (conjugates 10 mg/kg Dau content i.p. 7 treatments, free Dau 1 mg/kg 3 treatments, days after tumor transplantation, 8 animals per group) was “significantly decreased body weight from day 17”. In data set [5] (conjugates day 27, Dau day 24), the “liver/body weight ratio, percentage of control” value is given as 85.5%. Also, the “animals with metastases near the primary tumor, out of 8 animals” value in data set [5] (control 7 out of 8) is 1. Moreover, the “inhibition of weight of metastases in comparison to control” value in data set [5] (metastases near the primary tumor) was 78.3%. Besides, the “tumor weight, percentage of control” value in [5] (percentage printed in Fig. 6b, conjugates day 27, Dau day 24) is 32.3%. Also, the “weight of metastases, percentage of control” value in data set [5] (percentage printed in Fig. 6d) came out at 21.7%. Moreover, the “proliferation index, percentage of control” value in data set [6] stood at 98.2%; in data set [7] (percentage printed in Fig. 7b), 88.8%. Also, the “inhibition of proliferation (KI-67 proliferation index) compared to control” value in [7] (significant) is recorded as 11.2%. In addition, the “blood vessel density, percentage of control” value in data set [8] is 81.4%; in data set [9], 62.0%.
